In the supplement of paper PMC11781733:
Counter-ions that a name gives are not always drawn.

Columns and labels:
Conditions in all cases: exposure time: 15 min to 3 h acute
Dugesia japonica [1] = test: noxious heat displacement strength vs vehicle (% change vs vehicle); higher = higher incidence or increase relative to vehicle control
Procedure, shortened: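 Values are the median percent change in displacement strength under noxious heat, scored by automated object tracking in the scrunching assay with intact, fasted Dugesia japonica. Each worm was placed alone in a well of a 48-well plate in 200 μL and tested 15 min to 3 h after exposure in 0.5% DMSO or water vehicle. Eight worms per concentration per plate were run in technical triplicate (n = 24), with each worm normalised to the plate's vehicle median and worms that crawled out excluded.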

Dugesia japonica [2] = test: C-shape incidence (% planarians (vehicle-normalised)); higher = higher incidence or increase relative to vehicle control
Procedure, shortened: (§1)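 Single D. japonica planarians, fasted 5–7 days, sat in 200 μL per well of sealed 48-well plates and were screened 15 minutes–3 hours after exposure to at least 5 concentrations. Shapes were scored by hand and blind. The reported value is the incidence of a particular shape, or of any abnormal shape, ×100, set against in-plate vehicle controls with negatives taken as 0.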

Dugesia japonica [3] = test: pharynx extrusion incidence (% planarians (vehicle-normalised)); higher = higher incidence or increase relative to vehicle control
Procedure, shortened: (§2)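 Pharynx extrusion was scored manually and blind as a body-shape category in intact, fasted Dugesia japonica, one per well of a 48-well plate in 200 μL. Worms were tested 15 min to 3 h after exposure in 0.5% DMSO or water vehicle. Eight worms per concentration per plate were run in technical triplicate (n = 24). The incidence rate ×100 was normalised to in-plate vehicle controls, negatives were set to 0, and worms that crawled out were excluded.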

Dugesia japonica [4] = test: total locomotor bursts minus vehicle (bursts difference vs vehicle); higher = higher incidence or increase relative to vehicle control
Procedure, shortened: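 Planarians of the species Dugesia japonica, fasted beforehand, received half- or quarter-log concentration series in 0.5% DMSO or water, one animal per well of a sealed 48-well plate holding 200 μL solution. They were tested 15 min–3 h after exposure in technical triplicates totalling n = 24. Each animal's count of total locomotor bursts, an unstimulated behaviour obtained by image-based object tracking, had the plate vehicle-control median subtracted without ×100 scaling. The figure given is the median normalised response, with crawled-out worms excluded.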

Dugesia japonica [5] = test: resting fraction in dark vs vehicle (difference in fraction x100 vs vehicle); higher = higher incidence or increase relative to vehicle control
Procedure, shortened: (§3)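 The resting fraction, in the dark or under blue light, comes from automated tracking of intact, fasted Dugesia japonica. Worms sat singly in wells of a 48-well plate in 200 μL and were tested 15 min to 3 h after exposure in 0.5% DMSO or water vehicle. The plate's vehicle median was subtracted from each worm and the difference multiplied by 100, then the median was reported after excluding worms that crawled out.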

Dugesia japonica [6] = test: resting fraction in blue light vs vehicle (difference in fraction x100 vs vehicle); higher = higher incidence or increase relative to vehicle control
Procedure, shortened: as §3

Dugesia japonica [7] = test: crawl-out incidence (% planarians); higher = higher incidence or increase relative to vehicle control
Dugesia japonica [8] = test: speed second 30 s blue light vs vehicle (% change vs vehicle); higher = higher incidence or increase relative to vehicle control
Procedure, shortened: (§4)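 For each worm, crawling speed under dark or blue-light conditions was tracked automatically and expressed against the median of that plate's vehicle worms, and the reported value is the median percent change. The worms were intact, fasted Dugesia japonica held one per well in 200 μL in a 48-well plate, exposed in 0.5% DMSO or water vehicle and tested from 15 min to 3 h afterwards. Eight were used per concentration per plate across technical triplicate (n = 24), excluding any that crawled out.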

Dugesia japonica [9] = test: corkscrew incidence (% planarians (vehicle-normalised)); higher = higher incidence or increase relative to vehicle control
Procedure, shortened: as §1

Dugesia japonica [10] = test: contracted body shape incidence (% planarians (vehicle-normalised)); higher = higher incidence or increase relative to vehicle control
Procedure, shortened: as §1

Dugesia japonica [11] = test: hyperkinesis incidence (% planarians (vehicle-normalised)); higher = higher incidence or increase relative to vehicle control
Procedure, shortened: as §1

Dugesia japonica [12] = test: anxiety (time in outer well region) vs vehicle (% change vs vehicle); higher = higher incidence or increase relative to vehicle control
Procedure, shortened: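 The value is the median normalized time that planarians spent in the outer portion of the well. D. japonica worms, fasted 5–7 days, were held singly in 200 μL per well of sealed 48-well plates at at least 5 concentrations (n = 24 per concentration) and screened within 15 minutes–3 hours. Each worm's response was divided by, or reduced by, the plate vehicle median and then multiplied by 100, and worms that crawled out were left out.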

Dugesia japonica [13] = test: stickiness incidence (% planarians (vehicle-normalised)); higher = higher incidence or increase relative to vehicle control
Procedure, shortened: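 Stickiness was scored as a yes-or-no outcome in fasted Dugesia japonica planarians, and incidence was normalised to the vehicle incidence on the same plate. Each worm sat alone in a well of a sealed 48-well plate holding 200 μL of solution and was tested 15 min–3 h after exposure to half- or quarter-log concentration series, with 0.5% DMSO or water as vehicle. Technical triplicates were pooled (n = 24), negative values were set to 0, values were multiplied by 100, and worms that crawled out were excluded.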

Dugesia japonica [14] = test: any abnormal body shape incidence (% planarians (vehicle-normalised)); higher = higher incidence or increase relative to vehicle control
Procedure, shortened: as §1

Dugesia japonica [15] = test: speed first 30 s blue light vs vehicle (% change vs vehicle); higher = higher incidence or increase relative to vehicle control
Procedure, shortened: as §4

Dugesia japonica [16] = test: speed in dark vs vehicle (% change vs vehicle); higher = higher incidence or increase relative to vehicle control
Procedure, shortened: as §4

Dugesia japonica [17] = test: loss of heat-induced scrunching incidence (% planarians (vehicle-normalised)); higher = higher incidence or increase relative to vehicle control
Procedure, shortened: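 Planarians of the species D. japonica, fasted for 5–7 days, were placed singly in wells of sealed 48-well plates in 200 μL and exposed to at least 5 concentrations, 24 worms per concentration in technical triplicates. Scrunching in response to a noxious heat stimulus was tested within 15 minutes–3 hours, and any worm that crawled out was excluded. The reported figure is the incidence of non-scrunching worms, normalised to vehicle controls on the same plate. This incidence is given ×100, with negatives set to 0.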

Dugesia japonica [18] = test: loss of phototaxis incidence (% planarians (vehicle-normalised)); higher = higher incidence or increase relative to vehicle control
Procedure, shortened: as §2, with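 “Loss of phototaxis” for “Pharynx extrusion”, “scored” for “scored manually and blind”, “yes/no endpoint” for “body-shape category”, “vehicle, using automated object tracking.” for “vehicle.”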

| Compound | noxious heat displacement strength (Dugesia japonica [1]) | C-shape incidence (Dugesia japonica [2]) | pharynx extrusion incidence (Dugesia japonica [3]) | total locomotor bursts minus vehicle (Dugesia japonica [4]) | resting fraction in dark (Dugesia japonica [5]) | resting fraction in blue light (Dugesia japonica [6]) | crawl-out incidence (Dugesia japonica [7]) | speed second 30 s blue light (Dugesia japonica [8]) | corkscrew incidence (Dugesia japonica [9]) | contracted body shape incidence (Dugesia japonica [10]) | hyperkinesis incidence (Dugesia japonica [11]) | anxiety (Dugesia japonica [12]) | stickiness incidence (Dugesia japonica [13]) | any abnormal body shape incidence (Dugesia japonica [14]) | speed first 30 s blue light (Dugesia japonica [15]) | speed in dark (Dugesia japonica [16]) | loss of heat-induced scrunching incidence (Dugesia japonica [17]) | loss of phototaxis incidence (Dugesia japonica [18]) |
| --- | --- | --- | --- | --- | --- | --- | --- | --- | --- | --- | --- | --- | --- | --- | --- | --- | --- | --- |
| CN1CC(=O)N=C1NC(=O)Nc1cccc(Cl)c1 [fenobam] (178 µM) | -42.2 | 0 | 0 | 0.5 | 0.09 | 0 | 0 | -18.9 | 0 | 0 | 0 | 3.95 | ≤ 0 | 0 | -12.6 | -3.57 | ≤ 0 | ≤ 0 |
| CN1CC(=O)N=C1NC(=O)Nc1cccc(Cl)c1 [fenobam] (316 µM) | -32.2 | 0 | 0 | 0 | 0 | 0.18 | 0 | -16.9 | 0 | 0 | 0 | -0.1 | ≤ 0 | 0 | -14.2 | -12.6 | ≤ 0 | ≤ 0 |
| CN1CC(=O)N=C1NC(=O)Nc1cccc(Cl)c1 [fenobam] (562 µM) | -39.8 | 0 | 0 | 2.75 | 0.55 | 1.05 | 0 | -18.3 | 0 | 0 | 0 | -14.4 | ≤ 0 | 0 | -24.4 | -21.3 | ≤ 0 | ≤ 0 |
| CNCCC(Oc1ccc(C(F)(F)F)cc1)c1ccccc1 (centres undefined) [fluoxetine hydrochloride] (3.16 µM) | -9.15 | 0 | 0 | -7.5 | -6.73 | -1.89 | 0 | -5.1 | 0 | 0 | 0 | 8.3 | ≤ 0 | 0 | -11.9 | -5.68 | 16.7 | ≤ 0 |
| CNCCC(Oc1ccc(C(F)(F)F)cc1)c1ccccc1 (centres undefined) [fluoxetine hydrochloride] (10 µM) | -40 | 0 | 0 | 1 | -0.39 | -1.17 | 4.17 | -39.7 | 0 | 0 | 0 | 10.3 | ≤ 0 | 0 | -37.3 | -41.5 | 8.7 | ≤ 0 |
| CNCCC(Oc1ccc(C(F)(F)F)cc1)c1ccccc1 (centres undefined) [fluoxetine hydrochloride] (31.6 µM) | -49.6 | 0 | 0 | 9 | 10.3 | 6.49 | 0 | -66.4 | 0 | 0 | 0 | 10.3 | ≤ 0 | 0 | -70.9 | -58.6 | 8.33 | 16.7 |
| CNCCC(Oc1ccc(C(F)(F)F)cc1)c1ccccc1 (centres undefined) [fluoxetine hydrochloride] (100 µM) | -80.3 | 33.3 | 0 | 15.5 | 70.7 | 79.5 | 0 | -89.3 | 0 | 0 | 29.2 | 7.58 | ≤ 0 | 50 | -90.4 | -65.4 | 37.5 | 37.5 |
| O=C(CCCN1CCC(O)(c2ccc(Cl)cc2)CC1)c1ccc(F)cc1 [haloperidol] (3.16 µM) | -30.8 | 0 | 0 | 4.5 | 16.5 | 12.2 | 8.33 | -58.4 | 4.76 | 4.76 | 0 | -3.6 | ≤ 0 | 9.52 | -68.4 | -38.5 | 9.09 | 31.8 |
